Patent US20210220376A1, “ADDICTION TREATMENT OF AN ALCOHOL-CONSUMING PATIENT POPULATION” (Amygdala Neurosciences, Inc., priority 2018, published 2021)

System: healthy male alcohol drinkers
Test: Phase 1 single-ascending-dose study of compound (2) coadministered with ethanol: safety
Assay type: in vivo, human
Procedure: This was a single-center, randomized, double-blind, placebo-controlled, single-ascending-dose cohort study to evaluate the safety and tolerability of the coadministration of up to 6 dose levels of compound (2) (25 mg, 50 mg, 100 mg, 200 mg, 400 mg and 600 mg) and EtOH in healthy male alcohol drinkers.
Within 27 days of the medical screening visit, subjects were enrolled and attended an inpatient Qualification Phase in which they received up to 5 standard drinks (14 grams of EtOH each; oral solution of vodka containing 40% [v/v] EtOH, mixed with a non-carbonated beverage, one drink every 30 minutes) to evaluate their tolerance to repeat administration to ensure they could safely tolerate the planned EtOH treatment. A minimum washout interval of 44 hours was performed between initiation of the last EtOH administration in the Qualification Phase and study drug administration in the Treatment Phase.
Following qualification, eligible subjects were enrolled and randomized to receive compound (2) or placebo in a 3:1 fashion in each of 6 cohorts (8 subjects per cohort). As a safety precaution, no more than 4 subjects were administered study drug on any given day. Planned compound (2) dose levels included doses of 25 mg, 50 mg, 100 mg, 200 mg, 400 mg, and 600 mg. Study drug administration occurred approximately 1 hour following ingestion of a standardized (moderate-fat) meal. Approximately 2 hours after receiving the study drug, subjects began a session of repeat EtOH administration, during which they could receive up to 5 doses of EtOH (14 grams each, approximately 1 standard drink) every 30 minutes, or until a stopping criterion applied. Safety assessments, pharmacodynamic assessments and pharmacokinetic blood sample collections were obtained up to 48 hours post-dose. Subjects were discharged after 48-hour post-dose procedures were completed and the investigator deemed it safe to do so. Subjects returned for the safety follow-up visit approximately 7 (±2) days following discharge from the Treatment Phase or after early discontinuation from the study.
The primary endpoints included frequency and severity of adverse events (AEs), ethanol reaction (ER) scores and flushing, laboratory values, vital signs, and electrocardiograms (ECGs).
Subjects' ER scores and flushing were summarized descriptively by timepoint, category and treatment. In addition, flushing, ER heat sensation and ER palpitation were compared between each of the active doses and placebo using a mixed-effect model for repeated measures (MMRM) analysis with treatment, visit, and treatment by visit as fixed effects and baseline as a covariate. The actual value was used as the dependent variable and visit included pre-EtOH, 30 minutes, 60 minutes, 90 minutes, 120 minutes, 150 minutes and 3 hours relative to the first EtOH administration in Treatment Phase. The variance-covariance matrix was assumed to be unstructured. […] Results were presented as least square means (LSMEANS), treatment differences in LSMEANS, 95% confidence intervals (CI) and p-values.
Vital signs measurements (respiratory rate, systolic and diastolic blood pressure, and heart rate) were summarized by treatment and visit. Heart rate and diastolic blood pressure were also compared between each of the active doses and placebo using an MMRM analysis with treatment, visit, and treatment by visit as fixed effects and baseline as a covariate.
Twelve-lead ECG results were summarized by timepoint and treatment, and frequencies (numbers and percentages) were calculated for the overall evaluation. Concomitant medications, clinical laboratory evaluations (raw data and change from baseline, as applicable) and physical examination findings were listed.

[1] = 25 mg, 105 min after first EtOH
[2] = 25 mg, 135 min after first EtOH
[3] = 50 mg, 105 min after first EtOH
[4] = 50 mg, 135 min after first EtOH
[5] = 100 mg, 15 min after first EtOH
[6] = 100 mg, 45 min after first EtOH
[7] = 100 mg, 75 min after first EtOH
[8] = 100 mg, 105 min after first EtOH
[9] = 100 mg, 135 min after first EtOH
[10] = 200 mg, 15 min after first EtOH
[11] = 200 mg, 45 min after first EtOH
[12] = 200 mg, 75 min after first EtOH
[13] = 200 mg, 105 min after first EtOH

## O=C(NCc1ccc(-c2ccn(COP(=O)(O)O)c(=O)c2)cc1)c1c(Cl)cccc1Cl [Compound (2), phosphoric acid mono-(4-{4-[(2,6-dichloro-benzoylamino)-methyl]-phenyl}-2-oxo-2H-pyridin-1-ylmethyl) ester]
25 mg
  flushing: not observed
  subjects reporting a TEAE: 66.7%
25 mg, 15 min after first EtOH
  Diastolic Blood Pressure, Mean: 76.0 mmHg
  Systolic Blood Pressure, Mean: 120.3 mmHg
25 mg, 45 min after first EtOH
  Diastolic Blood Pressure, Mean: 75.5 mmHg
  Heart Rate, Mean: 65.3 beats/min
  Systolic Blood Pressure, Mean: 120.5 mmHg
25 mg, 1 hour after initiation of repeat EtOH administration session
  QTcF Interval, Aggregate, Mean: 406.7 ms
25 mg, 75 min after first EtOH
  Diastolic Blood Pressure, Mean: 75.8 mmHg
  Heart Rate, Mean: 63.5 beats/min
  Systolic Blood Pressure, Mean: 120.7 mmHg
[1]
  Diastolic Blood Pressure, Mean: 74.0 mmHg
  Heart Rate, Mean: 66.5 beats/min
  Systolic Blood Pressure, Mean: 118.2 mmHg
[2]
  Diastolic Blood Pressure, Mean: 75.0 mmHg
  Heart Rate, Mean: 64.7 beats/min
  Systolic Blood Pressure, Mean: 119.0 mmHg
25 mg, Pre-EtOH
  Diastolic Blood Pressure, Mean: 73.5 mmHg
  Heart Rate, Mean: 59.5 beats/min
  Systolic Blood Pressure, Mean: 117.2 mmHg
25 mg, prior to initiation of repeat EtOH administration session
  QTcF Interval, Aggregate, Mean: 403.7 ms
50 mg
  subjects reporting a TEAE: 83.3%
50 mg, 15 min after first EtOH
  Diastolic Blood Pressure, Mean: 73.3 mmHg
  Systolic Blood Pressure, Mean: 116.7 mmHg
50 mg, 45 min after first EtOH
  Diastolic Blood Pressure, Mean: 75.2 mmHg
  Heart Rate, Mean: 72.7 beats/min
  Systolic Blood Pressure, Mean: 119.5 mmHg
50 mg, 1 hour after initiation of repeat EtOH administration session
  QTcF Interval, Aggregate, Mean: 402.5 ms
50 mg, 75 min after first EtOH
  Diastolic Blood Pressure, Mean: 73.8 mmHg
  Heart Rate, Mean: 80.5 beats/min
  Systolic Blood Pressure, Mean: 117.5 mmHg
[3]
  Diastolic Blood Pressure, Mean: 71.8 mmHg
  Heart Rate, Mean: 81.8 beats/min
  Systolic Blood Pressure, Mean: 117.5 mmHg
[4]
  Diastolic Blood Pressure, Mean: 78.7 mmHg
  Heart Rate, Mean: 76.8 beats/min
  Systolic Blood Pressure, Mean: 123.7 mmHg
50 mg, Pre-EtOH
  Diastolic Blood Pressure, Mean: 74.5 mmHg
  Heart Rate, Mean: 56.7 beats/min
  Systolic Blood Pressure, Mean: 115.7 mmHg
50 mg, after EtOH
  subjects with TEAE of tachyarrhythmia: one
50 mg, prior to initiation of repeat EtOH administration session
  QTcF Interval, Aggregate, Mean: 400.7 ms
100 mg
  subjects reporting a TEAE: 100%
[5]
  Diastolic Blood Pressure, Mean: 72.0 mmHg
  Systolic Blood Pressure, Mean: 119.2 mmHg
[6]
  Diastolic Blood Pressure, Mean: 70.2 mmHg
  Heart Rate, Mean: 70.5 beats/min
  Systolic Blood Pressure, Mean: 120.0 mmHg
100 mg, 1 hour after initiation of repeat EtOH administration session
  QTcF Interval, Aggregate, Mean: 405.3 ms
[7]
  Diastolic Blood Pressure, Mean: 70.7 mmHg
  Heart Rate, Mean: 81.8 beats/min
  Systolic Blood Pressure, Mean: 120.2 mmHg
[8]
  Diastolic Blood Pressure, Mean: 69.5 mmHg
  Heart Rate, Mean: 83.8 beats/min
  Systolic Blood Pressure, Mean: 125.3 mmHg
[9]
  Diastolic Blood Pressure, Mean: 68.2 mmHg
  Heart Rate, Mean: 81.3 beats/min
  Systolic Blood Pressure, Mean: 114.8 mmHg
100 mg, Pre-EtOH
  Diastolic Blood Pressure, Mean: 71.5 mmHg
  Heart Rate, Mean: 57.0 beats/min
  Systolic Blood Pressure, Mean: 115.7 mmHg
100 mg, follow-up, abnormal, not clinically significant
  creatine kinase value of one subject: 1350 U/L
100 mg, one event
  severe TEAE: 0.6%
100 mg, prior to initiation of repeat EtOH administration session
  QTcF Interval, Aggregate, Mean: 401.3 ms
100 mg, repeat 3 days later
  creatine kinase value of one subject, repeat: 583 U/L
200 mg
  subjects reporting a TEAE: 100%
[10]
  Diastolic Blood Pressure, Mean: 76.5 mmHg
  Systolic Blood Pressure, Mean: 121.7 mmHg
[11]
  Diastolic Blood Pressure, Mean: 72.5 mmHg
  Heart Rate, Mean: 84.5 beats/min
  Systolic Blood Pressure, Mean: 124.5 mmHg
200 mg, 1 hour after initiation of repeat EtOH administration session
  QTcF Interval, Aggregate, Mean: 403.2 ms
[12]
  Diastolic Blood Pressure, Mean: 69.8 mmHg
  Heart Rate, Mean: 97.0 beats/min
  Systolic Blood Pressure, Mean: 125.7 mmHg
[13]
  Diastolic Blood Pressure, Mean: 68.0 mmHg
  Heart Rate, Mean: 101.3 beats/min
  Systolic Blood Pressure, Mean: 124.0 mmHg
